# Data: patent US20240400576A1, “NITROGEN-CONTAINING DERIVATIVES OF SALINOMYCIN, SYNTHESIS AND USES THEREOF” (Centre National de la Recherche Scientifique, priority 2021, published 2024)
# Read-outs that look alike come from different tables or passages of the source.
# Experiments:
# [1] = system: ID2 (HMLER CD24^high/CD44^low) cells; assay: Cell viability assay (CellTiter-Blue, 72 h) in ID2 matching non-stem cells; assay type: cell-based; conditions: Homo sapiens, read-out: ID2 cancer cells (IC50, μM)
# Method: (§1) The compounds have been evaluated against a model of breast cancer stem cells (HMLER) and matching non-stem cells (namely ID2 of HIMLER CD24^high/CD4^high/low), and in MCF10A cells (normal breast cell line).
# Each IC50 value was determined in biological triplicate (three independent biological experiments), and each triplicate was determined in at least technical duplicate. […]
# (§2) The cell viability assay was carried out by plating 1000 cells per well in 96-well plates. […] Very briefly, the CellTiter-Blue reagent (G8081, Promega) was added to the wells after 72 h of treatment, and cells were incubated for 3 h before fluorescence intensities (λex=560/20 nm; λem=590/10 nm) were recorded using a PerkinElmer Wallac 1420 Victor2 microplate reader. […]
# All derivatives were assessed for their antiproliferative activity and selectivity toward a well-established model of mesenchymal CSCs (HMLER CD24^low/CD44^high) together with their epithelial counterparts (HMLER CD24^high/CD44^low) lacking CSC properties. […]
# [2] = system: HMLER CD24^low/CD44^high cells; assay: Cell viability assay (CellTiter-Blue, 72 h) in HMLER breast cancer stem cell model; assay type: cell-based, human; conditions: for IC50: Homo sapiens; for Selectivity: ratio of the IC50 ID2 to the IC50 HMLER
# Method: as §1
# (§3) Each IC50 value was determined in biological triplicate (three independent biological experiments), and each triplicate was determined in at least technical duplicate.
# HMLER cells naturally repressing E-cadherin, obtained from human mammary epithelial cells infected with a retrovirus carrying hTERT, SV40, and the oncogenic allele H-rasV12, were cultured in DMEM/F12 (Gibco, 31331-028) supplemented with 10% FBS, 10 μg/mL insulin (Sigma-Aldrich, 10516), 0.5 ug/mL hydrocortisone (Sigma-Aldrich, H0888), and 0.5 ug/mL puromycin (Life Technologies, A11138-02); cells were a generous gift from Alain Puisieux (INSERM). All cells were incubated at 37° C. with 5% CO2. HMLER CD44low/high cells stained with CD24-APC and CD44-PE antibodies were sorted by FACS using an Aria Ilu (BD Biosciences) to obtain isolated CD24^low/CD44^high and CD24^high/CD44^low cell populations. HMLER CD24^low/CD44^high cells were supplemented with 10 ng/ml human epidermal growth factor (EGF, Miltenyi Biotec, 130-093-750, 100 ng/ml), while HMLER CD24^high/CD44^low cells were grown without EGF. MCF10A cells (ATCC, CRL-10317) were cultured in DMEM/F12 supplemented with 10% horse serum (Invitrogen, 16050-122), 10 μg/mL insulin, 10 ng/ml EGF, 0.5 μg/mL hydrocortisone, 100 ng/ml cholera toxin (Sigma-Aldrich, C8052), and 1× PenStrep (Invitrogen, 15070-063).
# The cell viability assay was carried out by plating 1000 cells per well in 96-well plates. The cells were treated for 72 h in a range between 12 nM and 50 µM or 0.3 nM and 4 μM using serial dilutions following the manufacturer's protocol. Very briefly, the CellTiter-Blue reagent (G8081, Promega) was added to the wells after 72 h of treatment, and cells were incubated for 3 h before fluorescence intensities (λex=560/20 nm; λem=590/10 nm) were recorded using a PerkinElmer Wallac 1420 Victor2 microplate reader. The IC50 cell viability curves were plotted using the Prism 8 software for the synthesized compounds against HMLER CD24^low/CD44^high and the isogenic cell line HMLER CD24^high/CD44^low.
# All derivatives were assessed for their antiproliferative activity and selectivity toward a well-established model of mesenchymal CSCs (HMLER CD24^low/CD44^high) together with their epithelial counterparts (HMLER CD24^high/CD44^low) lacking CSC properties. […] Specifically, compounds 6, 8, and 9 were identified to be particularly interesting in this context, with IC50 values of 30, 3, and 9 nM, respectively, together with their outstanding selectivities (Sls between 20.0 and 90.0).
# [3] = system: MCF10A cells; assay: Cell viability assay (CellTiter-Blue, 72 h) in MCF10A normal breast cell line; assay type: cell-based; conditions: Homo sapiens, MCF-10A, read-out: MCF10A (IC50, μM)
# Method: as §1, §3
# HMLER cells naturally repressing E-cadherin, obtained from human mammary epithelial cells infected with a retrovirus carrying hTERT, SV40, and the oncogenic allele H-rasV12, were cultured in DMEM/F12 (Gibco, 31331-028) supplemented with 10% FBS, 10 μg/mL insulin (Sigma-Aldrich, 10516), 0.5 ug/mL hydrocortisone (Sigma-Aldrich, H0888), and 0.5 ug/mL puromycin (Life Technologies, A11138-02); cells were a generous gift from Alain Puisieux (INSERM). All cells were incubated at 37° C. with 5% CO2. […]
# as §2
# [4] = 72 h, read-out: HMLER cancer cells (IC50, μM)
# [5] = cell viability, 72 h treatment, CellTiter-Blue, biological triplicate, read-out: HMLER cancer cells (IC50)
Structure (SMILES),Selectivity [2],other results
"C#CCN(CC#C)[C@H]1C=C[C@]2(O[C@H]([C@@H](CC)C(=O)[C@@H](C)[C@@H](O)[C@H](C)[C@@H]3O[C@@H]([C@@H](CC)C(=O)O)CC[C@@H]3C)[C@@H](C)C[C@H]2C)O[C@@]12CC[C@@](C)([C@H]1CC[C@](O)(CC)[C@H](C)O1)O2 [Compound 19, C20-epi-dipropargyloaminosalinomycin]",3.5,"IC50 [1]: 8.43 µM; IC50 [2, 4]: 2.4 µM"
CC[C@@H](C(=O)[C@@H](C)[C@@H](O)[C@H](C)[C@@H]1O[C@@H]([C@@H](CC)C(=O)[O-])CC[C@@H]1C)[C@H]1O[C@]2(C=C[C@H](NCC(C)C)[C@]3(CC[C@@](C)([C@H]4CC[C@](O)(CC)[C@H](C)O4)O3)O2)[C@H](C)C[C@@H]1C.[Na+] [Compound 4],11.0,–
CCCCCCCCCCCCN[C@H]1C=C[C@]2(O[C@H]([C@@H](CC)C(=O)[C@@H](C)[C@@H](O)[C@H](C)[C@@H]3O[C@@H]([C@@H](CC)C(=O)[O-])CC[C@@H]3C)[C@@H](C)C[C@H]2C)O[C@@]12CC[C@@](C)([C@H]1CC[C@](O)(CC)[C@H](C)O1)O2.[Na+] [Compound 7],4.1,–
CCCCCCCCCCCCN(CCCCCCCCCCCC)[C@H]1C=C[C@]2(O[C@H]([C@@H](CC)C(=O)[C@@H](C)[C@@H](O)[C@H](C)[C@@H]3O[C@@H]([C@@H](CC)C(=O)[O-])CC[C@@H]3C)[C@@H](C)C[C@H]2C)O[C@@]12CC[C@@](C)([C@H]1CC[C@](O)(CC)[C@H](C)O1)O2.[Na+] [Compound 13],5.2,–
CCCCCCN(CCCCCC)[C@H]1C=C[C@]2(O[C@H]([C@@H](CC)C(=O)[C@@H](C)[C@@H](O)[C@H](C)[C@@H]3O[C@@H]([C@@H](CC)C(=O)[O-])CC[C@@H]3C)[C@@H](C)C[C@H]2C)O[C@@]12CC[C@@](C)([C@H]1CC[C@](O)(CC)[C@H](C)O1)O2.[Na+] [Compound 12],13.3,–
CCCCCN(CCCCC)[C@H]1C=C[C@]2(O[C@H]([C@@H](CC)C(=O)[C@@H](C)[C@@H](O)[C@H](C)[C@@H]3O[C@@H]([C@@H](CC)C(=O)[O-])CC[C@@H]3C)[C@@H](C)C[C@H]2C)O[C@@]12CC[C@@](C)([C@H]1CC[C@](O)(CC)[C@H](C)O1)O2.[Na+] [Compound 11],7.7,–
CCCN(CCC)[C@H]1C=C[C@]2(O[C@H]([C@@H](CC)C(=O)[C@@H](C)[C@@H](O)[C@H](C)[C@@H]3O[C@@H]([C@@H](CC)C(=O)[O-])CC[C@@H]3C)[C@@H](C)C[C@H]2C)O[C@@]12CC[C@@](C)([C@H]1CC[C@](O)(CC)[C@H](C)O1)O2.[Na+] [Compound 9],20.0,"IC50 [2, 5]: 0.009 ± 0.0002 µM"
CC[C@@H](C(=O)[C@@H](C)[C@@H](O)[C@H](C)[C@@H]1O[C@@H]([C@@H](CC)C(=O)[O-])CC[C@@H]1C)[C@H]1O[C@]2(C=C[C@H](NCc3ccccc3)[C@]3(CC[C@@](C)([C@H]4CC[C@](O)(CC)[C@H](C)O4)O3)O2)[C@H](C)C[C@@H]1C.[Na+] [Compound 14],6.2,–
CC[C@@H](C(=O)[C@@H](C)[C@@H](O)[C@H](C)[C@@H]1O[C@@H]([C@@H](CC)C(=O)[O-])CC[C@@H]1C)[C@H]1O[C@]2(C=C[C@H](NCc3ccc(F)cc3)[C@]3(CC[C@@](C)([C@H]4CC[C@](O)(CC)[C@H](C)O4)O3)O2)[C@H](C)C[C@@H]1C.[Na+] [Compound 17],10.2,–
CCCCN(CCCC)[C@H]1C=C[C@]2(O[C@H]([C@@H](CC)C(=O)[C@@H](C)[C@@H](O)[C@H](C)[C@@H]3O[C@@H]([C@@H](CC)C(=O)[O-])CC[C@@H]3C)[C@@H](C)C[C@H]2C)O[C@@]12CC[C@@](C)([C@H]1CC[C@](O)(CC)[C@H](C)O1)O2.[Na+] [Compound 10],7.6,–
CCN[C@H]1C=C[C@]2(O[C@H]([C@@H](CC)C(=O)[C@@H](C)[C@@H](O)[C@H](C)[C@@H]3O[C@@H]([C@@H](CC)C(=O)[O-])CC[C@@H]3C)[C@@H](C)C[C@H]2C)O[C@@]12CC[C@@](C)([C@H]1CC[C@](O)(CC)[C@H](C)O1)O2.[Na+] [Compound 1],6.1,–
CC[C@@H](C(=O)[C@@H](C)[C@@H](O)[C@H](C)[C@@H]1O[C@@H]([C@@H](CC)C(=O)O)CC[C@@H]1C)[C@H]1O[C@]2(C=C[C@@H](O)[C@]3(CC[C@@](C)([C@H]4CC[C@](O)(CC)[C@H](C)O4)O3)O2)[C@H](C)C[C@@H]1C [Salinomycin],3.1,"IC50 [3]: 1.13 ± 0.14 µM; IC50 [1]: 4.36 ± 0.5 µM; IC50 [2, 4]: 1.39 ± 0.1 µM"
CCCCN[C@H]1C=C[C@]2(O[C@H]([C@@H](CC)C(=O)[C@@H](C)[C@@H](O)[C@H](C)[C@@H]3O[C@@H]([C@@H](CC)C(=O)[O-])CC[C@@H]3C)[C@@H](C)C[C@H]2C)O[C@@]12CC[C@@](C)([C@H]1CC[C@](O)(CC)[C@H](C)O1)O2.[Na+] [Compound 3],15.2,–
CCCN[C@H]1C=C[C@]2(O[C@H]([C@@H](CC)C(=O)[C@@H](C)[C@@H](O)[C@H](C)[C@@H]3O[C@@H]([C@@H](CC)C(=O)[O-])CC[C@@H]3C)[C@@H](C)C[C@H]2C)O[C@@]12CC[C@@](C)([C@H]1CC[C@](O)(CC)[C@H](C)O1)O2.[Na+] [Compound 2],10.1,–
CCCCCN[C@H]1C=C[C@]2(O[C@H]([C@@H](CC)C(=O)[C@@H](C)[C@@H](O)[C@H](C)[C@@H]3O[C@@H]([C@@H](CC)C(=O)[O-])CC[C@@H]3C)[C@@H](C)C[C@H]2C)O[C@@]12CC[C@@](C)([C@H]1CC[C@](O)(CC)[C@H](C)O1)O2.[Na+] [Compound 5],10.8,–
CC[C@@H](C(=O)[C@@H](C)[C@@H](O)[C@H](C)[C@@H]1O[C@@H]([C@@H](CC)C(=O)[O-])CC[C@@H]1C)[C@H]1O[C@]2(C=C[C@H](N(CC)CC)[C@]3(CC[C@@](C)([C@H]4CC[C@](O)(CC)[C@H](C)O4)O3)O2)[C@H](C)C[C@@H]1C.[Na+] [Compound 8],90.0,"IC50 [2, 5]: 0.003 ± 0.0005 µM"
CC[C@@H](C(=O)[C@@H](C)[C@@H](O)[C@H](C)[C@@H]1O[C@@H]([C@@H](CC)C(=O)[O-])CC[C@@H]1C)[C@H]1O[C@]2(C=C[C@H](NCc3ccc(C)cc3)[C@]3(CC[C@@](C)([C@H]4CC[C@](O)(CC)[C@H](C)O4)O3)O2)[C@H](C)C[C@@H]1C.[Na+] [Compound 16],12.7,–
CCCCCCN[C@H]1C=C[C@]2(O[C@H]([C@@H](CC)C(=O)[C@@H](C)[C@@H](O)[C@H](C)[C@@H]3O[C@@H]([C@@H](CC)C(=O)[O-])CC[C@@H]3C)[C@@H](C)C[C@H]2C)O[C@@]12CC[C@@](C)([C@H]1CC[C@](O)(CC)[C@H](C)O1)O2.[Na+] [Compound 6],24.7,"IC50 [2, 5]: 0.03 ± 0.01 µM"
CC[C@@H](C(=O)[C@@H](C)[C@@H](O)[C@H](C)[C@@H]1O[C@@H]([C@@H](CC)C(=O)[O-])CC[C@@H]1C)[C@H]1O[C@]2(C=C[C@H](NCc3ccc(O)cc3)[C@]3(CC[C@@](C)([C@H]4CC[C@](O)(CC)[C@H](C)O4)O3)O2)[C@H](C)C[C@@H]1C.[Na+] [Compound 15],12.4,–
CC[C@@H](C(=O)[C@@H](C)[C@@H](O)[C@H](C)[C@@H]1O[C@@H]([C@@H](CC)C(=O)[O-])CC[C@@H]1C)[C@H]1O[C@]2(C=C[C@H](NCc3ccc(Cl)cc3)[C@]3(CC[C@@](C)([C@H]4CC[C@](O)(CC)[C@H](C)O4)O3)O2)[C@H](C)C[C@@H]1C.[Na+] [Compound 18],11.0,–
